The subject of experiment [1] is PC-3. Kind of experiment: MTT cytotoxicity assay, PC-3 prostate cancer cells. The format is cell-based. Conditions: MTT assay, means ± SDs of three independent experiments, read-out: IC50 ± SD, Prostate Cancer Cells, PC-3. On the procedure: (§1) All the cells were cultured as adherent monolayers in culture flasks, and were used to determine the anti-cancer efficacy of RP-010. DMEM supplemented with 4.5 g of glucose, 10% fetal bovine serum (FBS) and 1% penicillin/streptomycin, was used to augment cell growth. Finally, the cells were incubated and grown in a humidified incubator containing 5% CO2 at 37 °C [50]. […] Cells were obtained from frozen stocks and cell passaging (up to P4) was performed at 80% cell confluency, using PBS and trypsin + 2.2-mM EDTA.
(§2) MTT assays were used to determine the cytotoxicity of the RP compounds, to PC cell lines, as previously described.
(In general: Tetrazolium assays rely on reduction of a dye to a coloured formazan, in cell work by metabolically active cells.)

For experiment [2], the system named is PC-3. Nature of the experiment: Wound healing assay, PC-3. The format is cell-based. Conditions: 0.5, 1, 2 or 4 µM, 12-24 h, vs vehicle. The protocol: (§3) This assay was conducted using DU145 and PC-3 cells as previously described. Upon confluence, 200 μL sterile tips were used to create a wound by gently scratching the complete cell monolayer. Sterile PBS was used to wash the cells several times to remove any floating cells. Different concentrations of the test compound were prepared in the culture media and added immediately after wound formation. The closure of the wound was observed by taking pictures at different time points by the EVOS microscope (Thermo Fisher Scientific, Wayne, MI, USA). Finally, the area of the wounds, at different time points, was calculated using Image J software (NIH, Bethesda, MD, USA).

In a further experiment the test system is CHO. Kind of experiment: MTT cytotoxicity assay, CHO cells. Conditions: Cricetulus griseus, Chinese hamster ovarian cell line, means ± SDs of three independent experiments, read-out: IC50 ± SD, Non-Prostate Cells, CHO. It counts as cell-based. The protocol:
as §1, §2

Experiment [3] relates to DU145. Kind of experiment: Time-dependent cell confluence (live cell imaging), DU145. It counts as cell-based. The protocol: The cytotoxicity of RP-010, over time, was determined using DU145 cells. The cells were seeded and incubated as previously described. The DU145 cells were incubated with vehicle or RP-010 for 72 h. The pictures were taken over time, at a snapshot interval of 15 min, from the same spot of the flask using the CytoSMART™ Lux 10X system (LONZA biosciences Walkersville, MD, USA) for live cell imaging.

For the next experiment, the system named is HCT116. More on the design: method as in PMID 28759878. Conditions: colon cancer cell line; cited from earlier work.
Another experiment deals with CRL-1459. Kind of experiment: MTT cytotoxicity assay, CRL-1459 normal colon epithelial cells. It counts as cell-based. Conditions: Homo sapiens, normal colon epithelial cell line, means ± SDs of three independent experiments, read-out: IC50 ± SD, Non-Prostate Cells, CRL-1459. On the procedure: as §1, §2
For experiment [4], the system named is DU145. Kind of experiment: Transwell migration assay, DU145. It counts as cell-based. Conditions: 0.5, 1 or 2 μM, 24 h. On the procedure:
The assay was done as previously described. The effect of RP-010, (0.5, 1 or 2 µM) on the migration of PC cells was tested using 24 trans-well inserts with an […] pore size. The addition of the insert to the well forms two chambers (upper and lower), where the upper chamber was used to grow the cells on the porous membrane. The lower chamber was filled with 600-μL cell-free DMEM medium. 200-μL of the cell suspension was added to each insert, and cells allowed to attach for 1 h. The test compound was added in different concentrations and incubated with the cells for 24 h. […] Finally, the remaining migrated cells were fixed by methanol, and stained with 0.1% crystal violet dye and counted with an EVOS microscope. The number of migrated cells was counted for the cultures incubated with vehicle or RP-010.

For experiment [5], the system named is DU145. Kind of experiment: DAPI staining of nuclear changes, DU145. It counts as cell-based. The protocol: (§4) The nuclear changes in DU145 and PC-3 cells lines produced by RP-010 (1, 2 and 4 µM) incubation at 24 or 48 h were determined using DAPI staining. The cells were seeded on culture cover glasses in 6-well plates, and allowed to grow overnight. The cells were then incubated with RP-010, for an additional 24 h, at 37 °C. The incubated cells were fixed with 4% paraformaldehyde, followed by permeabilization with 1× PBS/0.3% Triton X-100 for 25 min. Finally, DAPI stain was added, and cells were photographed using the EVOS microscope.

The test system of experiment [6] is Bak, Bax, Bcl2, caspase 3, PARP, cytochrome c in DU145 cells. Nature of the experiment: Western analysis of apoptosis-regulating proteins, DU145. Conditions: 1 or 2 μM, 24 h. The format is cell-based. The protocol:
DU145 cells were incubated with RP-010 ((1 or 2 µM) for 24 h. Thereafter, the cells were subjected to a two-step lysis process to extract and separate the cytosolic and the nuclear proteins, as previously described. Next, protein separation for both cytosolic and nuclear proteins was achieved by electrophoresing the samples through acrylamide SDS-PAGE gels, followed by transfer to a PVDF membrane. The PVDF membrane was then incubated overnight with the following primary antibodies: rabbit α-tubulin, 1:4000 dilution, rabbit BAX (1:1000), rabbit BAK (1:1000), rabbit cytochrome c (1:1000), rabbit PARP (1:5000), rabbit β-Catenin (1:4000), rabbit DVL3 (1:4000), rabbit LRP-6 (1:1000), rabbit P-LRP-6 (1:1000), rabbit c-Myc (1: 4000), rabbit cyclin B1 (1:2000), rabbit Wnt 5a (1:1000), rabbit naked 1 and naked 2 (1:1000), mouse E-cadherin (1:4000), mouse N-cadherin (1:4000), mouse β-actin (1:5000) and rabbit histone (1:3000). Finally, protein expression levels were determined as described previously. In the Figure 3, Figure 5 and Figure S8, the protein blots above β-actin were cytosolic lysates, while all the proteins below β-actin and above histones (loading controls) were nuclear lysates.

Experiment [7] concerns DU145. Kind of experiment: Wound healing assay, DU145. The format is cell-based. Conditions: 0.5, 1, 2 or 4 µM, 12-48 h, vs vehicle. The protocol:
as §3

The test system of experiment [8] is PC-3. Kind of experiment: DAPI staining of nuclear changes, PC-3. Conditions: 24 and 48 h. It counts as cell-based. On the procedure: as §4

Like-named read-outs stand apart in the source and are kept apart here.

Regarding `COc1ccc(-c2nc3sc4c(c3c(=O)[nH]2)CCCC4)cc1` [RP10], the IC50 in the experiment with PC-3 [1] (listed as RP-010) was < 1000 nM; with PC-3 [1], 300 ± 100 nM; in the experiment with CHO, 14000 ± 1300 nM; with HCT116, 600 ± 300 nM; with CRL-1459, 73000 ± 5300 nM. The “Wound healing (cell migration)” value was “significantly decreasing wound healing” in the experiment on PC-3 [2] and “significant decrease” with DU145 [7]. The “Cell growth over time (confluence)” value in the experiment on DU145 [3] (0.5 µM, after 24 h of incubation, p < 0.05) was “significantly decreased”; in the experiment with DU145 [3] (1 µM, after 12 h of incubation, p < 0.01), “significantly decreased”. The “Number of cells migrating across the membrane (transwell)” value in the experiment on DU145 [4] is “significantly decreased”. The “Nuclear morphology (DAPI)” value in the experiment with DU145 [5] (1 µM, 24 h) was “produced multinucleated cells”; in the experiment with DU145 [5] (1, 2 or 4 µM, 48 h) it was “primarily produced early stage apoptotic nuclear morphology”; in the experiment with DU145 [5] (2 or 4 µM, 24 h), “significantly increased numbers of highly condensed, fragmented nuclear chromatin”; in the experiment with PC-3 [8] (1 µM) it was “significant increase in multinucleated cells”; in the experiment on PC-3 [8] (2 or 4 μM) it was “apoptosis”. In [6], the “Expression of Bax” value is reported as “did not significantly alter”. The “Levels of cytochrome c” value in experiment [6] is listed as “did not significantly alter”. In addition, in experiment [6], the “Levels of total cytosolic PARP” value is on record as “significantly reduced”. Moreover, the “Cleavage of caspase-3” value in experiment [6] (p < 0.001) is listed as “significantly increased”. The “Expression of Bcl2” value in experiment [6] (p < 0.01) is listed as “significantly downregulated”. Further, in [6] (p < 0.01), the “Levels of cleaved nuclear PARP” value is reported as “increased”. The “Levels of cleaved cytosolic PARP” value in experiment [6] (p < 0.05) is given as “significantly increased”. The “Expression level of Bak, increase” value in experiment [6] (vs vehicle, p < 0.01) is ≥ 2 fold.

Broadly, the IC50 is the concentration that inhibits the measured activity by half.

The values above are taken from paper PMC6563099, “Novel Thienopyrimidine Derivative, RP-010, Induces β-Catenin Fragmentation and Is Efficacious against Prostate Cancer Cells” (Cancers, 2019).
